Test results reported in ChEMBL document CHEMBL1201862, “PubChem BioAssay data set” (2004).
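Method: 48-hour compound exposure of cells in 96-well plates, five concentrations, linear interpolation of endpoints. GI50 is the concentration that inhibits growth by half.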 Activity calls are given as the source filed them. No stated cut-off is given here; in the data, active = GI50 up to about 1.1 µM and inactive = higher.

What was measured:
Experiment in all cases: NCI anticancer screen, dose series, 48 h
NCI-H522 = test system: NCI-H522
SK-MEL-2 = test system: SK-MEL-2
HOP-92 = test system: HOP-92
786-0 = test system: 786-0
HCT-116 = test system: HCT-116
NCI/ADR-RES = test system: NCI/ADR-RES
SNB-19 = test system: SNB-19
MDA-MB-435 = test system: MDA-MB-435
NCI-H460 = test system: NCI-H460
Malme-3M = test system: Malme-3M
LOX IMVI = test system: LOX IMVI
UACC-257 = test system: UACC-257
RPMI-8226 = test system: RPMI-8226
MCF7 = test system: MCF7
PC-3 = test system: PC-3
K562 = test system: K562
SNB-75 = test system: SNB-75
A498 = test system: A498
M14 = test system: M14
NCI-H23 = test system: NCI-H23

For CCOC(=O)C(NC(=O)c1cccc(Cl)c1)(Nc1cccc(C)c1)C(F)(F)F (stereo not drawn), the GI50 (NCI-H522) was 5.26 µM (inactive), the GI50 (SK-MEL-2) was 16.3 µM (inactive) and the GI50 (HOP-92) was 15 µM (inactive). For the same compound, the GI50 (786-0) was 23.3 µM (inactive), the GI50 (HCT-116) was 19.1 µM (inactive) and the GI50 (NCI/ADR-RES) was 15.9 µM (inactive). For the same compound, the GI50 (SNB-19) was 35.9 µM (inactive), the GI50 (MDA-MB-435) was 19.6 µM (inactive) and the GI50 (NCI-H460) was 20.8 µM (inactive). The GI50 (Malme-3M) was 16.6 µM (inactive), the GI50 (LOX IMVI) was 15.3 µM (inactive) and the GI50 (UACC-257) was 25.7 µM (inactive). The GI50 (RPMI-8226) was 18.3 µM (inactive), the GI50 (MCF7) was 19 µM (inactive) and the GI50 (PC-3) was 16.5 µM (inactive). For the same compound, the GI50 (K562) was 23.6 µM (inactive) and the GI50 (SNB-75) was 12.4 µM (inactive).
For ClCCN1CCO/C1=N/c1ccc2c(c1)CCCC2, the GI50 (NCI-H522) was 10.8 µM (inactive), the GI50 (SK-MEL-2) was 13.7 µM (inactive) and the GI50 (HOP-92) was 11.2 µM (inactive). The GI50 (786-0) was 16.2 µM (inactive), the GI50 (A498) was 6.92 µM (inactive) and the GI50 (HCT-116) was 13.4 µM (inactive). For the same compound, the GI50 (NCI/ADR-RES) was 18.1 µM (inactive), the GI50 (SNB-19) was 5.53 µM (inactive) and the GI50 (MDA-MB-435) was 10.5 µM (inactive). For the same compound, the GI50 (NCI-H460) was 18.8 µM (inactive), the GI50 (M14) was 13.3 µM (inactive) and the GI50 (Malme-3M) was 7.19 µM (inactive). For the same compound, the GI50 (LOX IMVI) was 13.4 µM (inactive), the GI50 (UACC-257) was 3.82 µM (inactive) and the GI50 (RPMI-8226) was 4.76 µM (inactive). For the same compound, the GI50 (PC-3) was 4.44 µM (inactive), the GI50 (K562) was 6.7 µM (inactive) and the GI50 (NCI-H23) was 8.95 µM (inactive). For the same compound, the GI50 (SNB-75) was 13.3 µM (inactive).
For Cc1cccc(N2CCN(S(=O)(=O)c3ccc(Cl)cc3)C2=N)c1C, the GI50 (786-0) was > 100 µM (inactive), the GI50 (A498) was > 100 µM (inactive) and the GI50 (HCT-116) was > 100 µM (inactive). The GI50 (NCI/ADR-RES) was > 100 µM (inactive), the GI50 (SNB-19) was > 100 µM (inactive) and the GI50 (MDA-MB-435) was > 100 µM (inactive). The GI50 (M14) was > 100 µM (inactive), the GI50 (UACC-257) was > 100 µM (inactive) and the GI50 (RPMI-8226) was > 100 µM (inactive). The GI50 (MCF7) was > 100 µM (inactive), the GI50 (K562) was 33.1 µM (inactive) and the GI50 (NCI-H23) was 96.4 µM (inactive). The GI50 (SNB-75) was > 100 µM (inactive).
With CCOC(=O)/C=C(/C(=O)OCC)n1cc(C)c(=O)n(Cc2cnnn2CCCCOC(C)=O)c1=O the GI50 (NCI-H522) was 3.21 µM (inactive), the GI50 (SK-MEL-2) was 86.9 µM (inactive) and the GI50 (HOP-92) was 0.0906 µM (active). For the same compound, the GI50 (786-0) was 15.6 µM (inactive), the GI50 (HCT-116) was 15.1 µM (inactive) and the GI50 (NCI/ADR-RES) was 26.7 µM (inactive). The GI50 (SNB-19) was > 100 µM (inactive), the GI50 (MDA-MB-435) was 21.2 µM (inactive) and the GI50 (NCI-H460) was 23.3 µM (inactive). The GI50 (LOX IMVI) was 18.4 µM (inactive), the GI50 (UACC-257) was 26.3 µM (inactive) and the GI50 (RPMI-8226) was 17.1 µM (inactive). For the same compound, the GI50 (MCF7) was 13.6 µM (inactive), the GI50 (PC-3) was 68.5 µM (inactive) and the GI50 (K562) was 18.7 µM (inactive). The GI50 (NCI-H23) was 28.7 µM (inactive) and the GI50 (SNB-75) was > 100 µM (inactive).
For COC(=O)[C@H](Cc1c[nH]c2ccccc12)NP(=O)(O)OC[C@H]1O[C@@H](n2cc(C)c(=O)[nH]c2=O)C[C@@H]1N=[N+]=[N-], the GI50 (NCI-H522) was > 100 µM (inactive), the GI50 (SK-MEL-2) was > 100 µM (inactive) and the GI50 (HOP-92) was > 100 µM (inactive). The GI50 (786-0) was > 100 µM (inactive), the GI50 (HCT-116) was > 100 µM (inactive) and the GI50 (NCI/ADR-RES) was > 100 µM (inactive). The GI50 (SNB-19) was > 100 µM (inactive), the GI50 (MDA-MB-435) was > 100 µM (inactive) and the GI50 (NCI-H460) was > 100 µM (inactive). For the same compound, the GI50 (M14) was > 100 µM (inactive), the GI50 (Malme-3M) was > 100 µM (inactive) and the GI50 (LOX IMVI) was > 100 µM (inactive). For the same compound, the GI50 (UACC-257) was > 100 µM (inactive), the GI50 (RPMI-8226) was > 100 µM (inactive) and the GI50 (MCF7) was > 100 µM (inactive). For the same compound, the GI50 (PC-3) was > 100 µM (inactive), the GI50 (K562) was > 100 µM (inactive) and the GI50 (NCI-H23) was > 100 µM (inactive). For the same compound, the GI50 (SNB-75) was > 100 µM (inactive).
For CC(=O)O[C@H]1C(=O)[C@@]2(C)C(C(OC(=O)c3ccccc3)[C@]3(O)CC(OC(=O)C(O)C(NC(=O)c4cccc(Cl)c4)c4ccccc4)C(C)=C1C3(C)C)[C@]1(OC(C)=O)CO[C@@H]1C[C@@H]2O (stereo partly drawn), the GI50 (NCI-H522) was 0.912 µM (active), the GI50 (SK-MEL-2) was 0.656 µM (active) and the GI50 (HOP-92) was > 10 µM (inactive). The GI50 (786-0) was 0.728 µM (active), the GI50 (HCT-116) was 0.16 µM (active) and the GI50 (NCI/ADR-RES) was 5.28 µM (inactive). The GI50 (SNB-19) was 2.79 µM (inactive), the GI50 (MDA-MB-435) was 0.118 µM (active) and the GI50 (NCI-H460) was 0.419 µM (active). The GI50 (M14) was 0.851 µM (active), the GI50 (Malme-3M) was 2.75 µM (inactive) and the GI50 (LOX IMVI) was 0.841 µM (active). For the same compound, the GI50 (UACC-257) was 2.09 µM (inactive), the GI50 (RPMI-8226) was 0.405 µM (active) and the GI50 (MCF7) was 0.344 µM (active). For the same compound, the GI50 (PC-3) was 1.53 µM (inactive), the GI50 (K562) was 0.562 µM (active) and the GI50 (NCI-H23) was 1.39 µM (inactive). For the same compound, the GI50 (SNB-75) was 1.1 µM (active).
In the case of COc1cccc(O)c1-c1cc(=O)c2c(O)c(OC)c(OC)c(OC)c2o1 [SKULLCAPFLAVONE II], the GI50 (NCI-H522) is reported as 22.7 µM (inactive), the GI50 (SK-MEL-2) is reported as 20.9 µM (inactive) and the GI50 (HOP-92) is reported as 22.1 µM (inactive). For the same compound, the GI50 (786-0) was 42.6 µM (inactive), the GI50 (HCT-116) was 32.1 µM (inactive) and the GI50 (NCI/ADR-RES) was 21.8 µM (inactive). The GI50 (SNB-19) was 29.2 µM (inactive), the GI50 (MDA-MB-435) was 10.3 µM (inactive) and the GI50 (NCI-H460) was 19.1 µM (inactive). The GI50 (M14) was 23.5 µM (inactive), the GI50 (Malme-3M) was 36.4 µM (inactive) and the GI50 (LOX IMVI) was 30.2 µM (inactive). For the same compound, the GI50 (UACC-257) was 27 µM (inactive), the GI50 (RPMI-8226) was 18.7 µM (inactive) and the GI50 (MCF7) was 27.3 µM (inactive). For the same compound, the GI50 (PC-3) was 15.3 µM (inactive), the GI50 (K562) was 14.5 µM (inactive) and the GI50 (NCI-H23) was 24.9 µM (inactive). For the same compound, the GI50 (SNB-75) was 23 µM (inactive).
